Experimental data taken from patent US10533010B2, “Substituted indole Mcl-1 inhibitors” (Vanderbilt University, priority 2014, dated 2020).
Read-outs that look alike come from different tables or passages of the source.

Molecular target: recombinant Mcl-1 (residues 172-327) (Homo sapiens (Human), UniProt Q07820)
Assay: Fluorescence polarization anisotropy competition assay (FITC-Bak or FITC-Bim BH3 peptide) with Mcl-1
Assay type: binding
Details: Table 2, FITC-Bak or FITC-Bim peptide competition, Ki converted from IC50, read-out: Ki for Inhibition of Mcl-1

Sequence of recombinant Mcl-1 (residues 172-327) (Q07820 172-327): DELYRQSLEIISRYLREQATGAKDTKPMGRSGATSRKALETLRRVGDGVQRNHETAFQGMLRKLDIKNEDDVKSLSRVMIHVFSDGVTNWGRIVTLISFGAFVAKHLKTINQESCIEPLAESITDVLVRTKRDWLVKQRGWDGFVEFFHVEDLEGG

| SMILES | Ki (Ki bins given in nM) | Ki (Ki bins given in μM) |
| --- | --- | --- |
| Cc1cc(OCCCc2c3n(c4c(-c5c(C)nn(C)c5C)c(Cl)ccc24)CC(C)CN(Cc2ccc(C(=O)O)cc2)C3=O)cc(C)c1Cl (stereo not drawn) [I-133, 4-((8-chloro-11-(3-(4-chloro-3,5-dimethylphenoxy)propyl)-4-methyl-1-oxo-7-(1,3,5-trimethyl-1H-pyrazol-4-yl)-4,5-dihydro-1H-[1,4]diazepino[1,2-a]indol-2(3H)-yl)methyl)benzoic acid] | < 50 nM | – |
| Cc1cc(OCCCc2c(C(=O)NCc3cccc(C(=O)O)c3)n(CCN3CCOCC3)c3c(-c4c(C)nn(C)c4C)c(Cl)ccc23)cc(C)c1Cl [I-372, 3-((6-chloro-3-(3-(4-chloro-3,5-dimethylphenoxy)propyl)-1-(2-morpholinoethyl)-7-(1,3,5-trimethyl-1H-pyrazol-4-yl)-1H-indole-2-carboxamido)methyl)benzoic acid] | < 50 nM | – |
| Cc1cc(OCCCc2c3n(c4c(-c5c(C)nn(C)c5C)c(Cl)ccc24)C(C)[C@@H](C)N(Cc2cccc(C(=O)O)c2)C3=O)cc(C)c1Cl (stereo partly drawn) [I-145, 3-(((3R)-7-chloro-10-(3-(4-chloro-3,5-dimethylphenoxy)propyl)-3,4-dimethyl-1-oxo-6-(1,3,5-trimethyl-1H-pyrazol-4-yl)-3,4-dihydropyrazino[1,2-a]indol-2(1H)-yl)methyl)benzoic acid] | < 50 nM | – |
| Cc1cc(OCCCc2c3n(c4c(-c5c(C)nn(C)c5C)c(Cl)ccc24)CCCN(c2cc(F)cc(C(=O)O)c2)C3=O)cc(C)c1Cl [I-223, 3-(8-chloro-11-(3-(4-chloro-3,5-dimethylphenoxy)propyl)-1-oxo-7-(1,3,5-trimethyl-1H-pyrazol-4-yl)-4,5-dihydro-1H-[1,4]diazepino[1,2-a]indol-2(3H)-yl)-5-fluorobenzoic acid] | < 50 nM | – |
| Cc1cc(OCCCc2c3n(c4c(-c5c(C)nn(C)c5C)c(Cl)ccc24)CCCN(c2nc(C(=O)O)cs2)C3=O)cc(C)c1Cl [I-359, 2-(8-chloro-11-(3-(4-chloro-3,5-dimethylphenoxy)propyl)-1-oxo-7-(1,3,5-trimethyl-1H-pyrazol-4-yl)-4,5-dihydro-1H-[1,4]diazepino[1,2-a]indol-2(3H)-yl)thiazole-4-carboxylic acid] | < 50 nM | – |
| Cc1cc(OCCCc2c(C(=O)NCC(=O)NS(=O)(=O)c3ccc(Oc4ccccc4)cc3)[nH]c3ccccc23)cc(C)c1Cl [I-8, 3-(3-(4-chloro-3,5-dimethylphenoxy)propyl)-N-(2-oxo-2-((4-phenoxyphenyl)sulfonamido)ethyl)-1H-indole-2-carboxamide] | 101 to 299 nM | – |
| Cc1ccc(C(=O)O)cc1N1CCCn2c(c(CCCOc3cc(C)c(Cl)c(C)c3)c3ccc(Cl)c(-c4c(C)nn(C)c4C)c32)C1=O [I-100, 3-(8-chloro-11-(3-(4-chloro-3,5-dimethylphenoxy)propyl)-1-oxo-7-(1,3,5-trimethyl-1H-pyrazol-4-yl)-4,5-dihydro-1H-[1,4]diazepino[1,2-a]indol-2(3H)-yl)-4-methylbenzoic acid] | < 50 nM | – |
| Cc1cc(OCCCc2c(C(=O)N3CCC(N4CCOCC4)CC3)[nH]c3ccccc23)cc(C)c1Cl [I-47, (3-(3-(4-chloro-3,5-dimethylphenoxy)propyl)-1H-indol-2-yl)(4-morpholinopiperidin-1-yl)methanone] | – | 10000 to 50000 nM |
| Cc1cc(OCCCc2c3n(c4c(-c5c(C)nn(C)c5C)c(Cl)ccc24)CCN(Cc2ccc(C(=O)O)cn2)C3=O)cc(C)c1Cl [I-142, 6-((7-chloro-10-(3-(4-chloro-3,5-dimethylphenoxy)propyl)-1-oxo-6-(1,3,5-trimethyl-1H-pyrazol-4-yl)-3,4-dihydropyrazino[1,2-a]indol-2(1H)-yl)methyl)nicotinic acid] | < 50 nM | – |
| Cc1cc(OCCCc2c3n(c4c(-c5c(C)nn(C)c5C)c(Cl)ccc24)CCCN(c2cc(CN(C)C)cc(C(=O)O)c2)C3=O)cc(C)c1Cl [I-226, 3-(8-chloro-11-(3-(4-chloro-3,5-dimethylphenoxy)propyl)-1-oxo-7-(1,3,5-trimethyl-1H-pyrazol-4-yl)-4,5-dihydro-1H-[1,4]diazepino[1,2-a]indol-2(3H)-yl)-5-((dimethylamino)methyl)benzoic acid] | < 50 nM | – |
| Cc1cc(OCCCc2c3n(c4c(-c5c(C)nn(C)c5C)c(Cl)ccc24)CCCN(Cc2cc(COc4ccccc4C(F)(F)F)cc(C(=O)O)c2)C3=O)cc(C)c1Cl [I-312, 3-((8-chloro-11-(3-(4-chloro-3,5-dimethylphenoxy)propyl)-1-oxo-7-(1,3,5-trimethyl-1H-pyrazol-4-yl)-4,5-dihydro-1H-[1,4]diazepino[1,2-a]indol-2(3H)-yl)methyl)-5-((2-(trifluoromethyl)phenoxy)methyl)benzoic acid] | 51 to 100 nM | – |
| Cc1cc(OCCCc2c(C(=O)N3CCN(c4ccc(C(=O)O)cn4)CC3)[nH]c3c(-c4c(C)nn(C)c4C)c(Cl)ccc23)cc(C)c1Cl [I-344, 6-(4-(6-chloro-3-(3-(4-chloro-3,5-dimethylphenoxy)propyl)-7-(1,3,5-trimethyl-1H-pyrazol-4-yl)-1H-indole-2-carbonyl)piperazin-1-yl)nicotinic acid] | < 50 nM | – |
| Cc1cc(OCCCc2c3n(c4c(-c5c(C)nn(C)c5C)c(Cl)ccc24)CCCN(c2cc(C(=O)O)cc4c2c(Br)cn4C)C3=O)cc(C)c1Cl [I-256, 3-bromo-4-(8-chloro-11-(3-(4-chloro-3,5-dimethylphenoxy)propyl)-1-oxo-7-(1,3,5-trimethyl-1H-pyrazol-4-yl)-4,5-dihydro-1H-[1,4]diazepino[1,2-a]indol-2(3H)-yl)-1-methyl-1H-indole-6-carboxylic acid] | < 50 nM | – |
| Cc1cc(OCCCc2c3n(c4c(-c5c(C)nn(CC(=O)O)c5C)c(Cl)ccc24)CCCNC3=O)cc(C)c1Cl [I-295, 2-(4-(8-chloro-11-(3-(4-chloro-3,5-dimethylphenoxy)propyl)-1-oxo-2,3,4,5-tetrahydro-1H-[1,4]diazepino[1,2-a]indol-7-yl)-3,5-dimethyl-1H-pyrazol-1-yl)acetic acid] | < 50 nM | – |
| Cc1cc(OCCCc2c(C(=O)NCc3cc(Br)cc(C(=O)O)c3)[nH]c3c(-c4c(C)nn(C)c4C)c(Cl)ccc23)cc(C)c1Cl [I-370, 3-bromo-5-((6-chloro-3-(3-(4-chloro-3,5-dimethylphenoxy)propyl)-7-(1,3,5-trimethyl-1H-pyrazol-4-yl)-1H-indole-2-carboxamido)methyl)benzoic acid] | < 50 nM | – |
| Cc1cc(OCCCc2c3n(c4c(-c5c(C)nn(C)c5C)cccc24)CCCN(Cc2ccc(-c4nnn[nH]4)cc2)C3=O)cc(C)c1Cl [I-88, 2-(4-(1H-tetrazol-5-yl)benzyl)-11-(3-(4-chloro-3,5-dimethylphenoxy)propyl)-7-(1,3,5-trimethyl-1H-pyrazol-4-yl)-2,3,4,5-tetrahydro-1H-[1,4]diazepino[1,2-a]indol-1-one] | < 50 nM | – |
| Cc1cc(OCCCc2c3n(c4c(-c5c(C)nn(C)c5C)c(Cl)ccc24)CCC(C)N(Cc2cccc(C(=O)O)c2)C3=O)cc(C)c1Cl (stereo not drawn) [I-125, 3-((8-chloro-11-(3-(4-chloro-3,5-dimethylphenoxy)propyl)-3-methyl-1-oxo-7-(1,3,5-trimethyl-1H-pyrazol-4-yl)-4,5-dihydro-1H-[1,4]diazepino[1,2-a]indol-2(3H)-yl)methyl)benzoic acid] | < 50 nM | – |
| Cc1cc(OCCCc2c3n(c4c(-c5c(C)nn(C)c5C)c(Cl)ccc24)CCCN(c2cc(C(=O)O)cc(-c4cccn4C)c2)C3=O)cc(C)c1Cl [I-235, 3-(8-chloro-11-(3-(4-chloro-3,5-dimethylphenoxy)propyl)-1-oxo-7-(1,3,5-trimethyl-1H-pyrazol-4-yl)-4,5-dihydro-1H-[1,4]diazepino[1,2-a]indol-2(3H)-yl)-5-(1-methyl-1H-pyrrol-2-yl)benzoic acid] | < 50 nM | – |
| Cc1cc(OCCCc2c3n(c4c(-c5c(C)nn(C)c5C)c(Cl)ccc24)CCCN(Cc2cc(OCCC(C)C)cc(C(=O)O)c2)C3=O)cc(C)c1Cl [I-300, 3-((8-chloro-11-(3-(4-chloro-3,5-dimethylphenoxy)propyl)-1-oxo-7-(1,3,5-trimethyl-1H-pyrazol-4-yl)-4,5-dihydro-1H-[1,4]diazepino[1,2-a]indol-2(3H)-yl)methyl)-5-(isopentyloxy)benzoic acid] | < 50 nM | – |
| Cc1cc(OCCCc2c(C(=O)NCCC(=O)NS(=O)(=O)c3ccccc3)[nH]c3ccccc23)cc(C)c1Cl [I-14, 3-(3-(4-chloro-3,5-dimethylphenoxy)propyl)-N-(3-oxo-3-(phenylsulfonamido)propyl)-1H-indole-2-carboxamide] | 51 to 100 nM | – |
| Cc1cc(OCCCc2c3n(c4c(-c5c(C)nn(C)c5C)c(Cl)ccc24)CCCN(C2SC(=O)NC2C(=O)O)C3=O)cc(C)c1Cl (stereo not drawn) [I-346, 5-(8-chloro-11-(3-(4-chloro-3,5-dimethylphenoxy)propyl)-1-oxo-7-(1,3,5-trimethyl-1H-pyrazol-4-yl)-4,5-dihydro-1H-[1,4]diazepino[1,2-a]indol-2(3H)-yl)-2-oxothiazolidine-4-carboxylic acid] | < 50 nM | – |
| Cc1cc(OCCCc2c(C(=O)NCc3ccccc3)[nH]c3ccccc23)cc(C)c1Cl [I-41, N-benzyl-3-(3-(4-chloro-3,5-dimethylphenoxy)propyl)-1H-indole-2-carboxamide] | – | 10000 to 50000 nM |
| Cc1cc(CN2CCCn3c(c(CCCOc4cc(C)c(Cl)c(C)c4)c4ccc(Cl)c(-c5c(C)nn(C)c5C)c43)C2=O)cc(C(=O)O)c1 [I-297, 3-((8-chloro-11-(3-(4-chloro-3,5-dimethylphenoxy)propyl)-1-oxo-7-(1,3,5-trimethyl-1H-pyrazol-4-yl)-4,5-dihydro-1H-[1,4]diazepino[1,2-a]indol-2(3H)-yl)methyl)-5-methylbenzoic acid] | 51 to 100 nM | – |
| Cc1cc(OCCCc2c3n(c4c(-c5c(C)nn(C)c5C)c(Cl)ccc24)CCCN(c2cc(Br)cc(C(=O)O)c2)C3=O)cc(C)c1Cl [I-218, 3-bromo-5-(8-chloro-11-(3-(4-chloro-3,5-dimethylphenoxy)propyl)-1-oxo-7-(1,3,5-trimethyl-1H-pyrazol-4-yl)-4,5-dihydro-1H-[1,4]diazepino[1,2-a]indol-2(3H)-yl)benzoic acid] | < 50 nM | – |
